Among the test systems are A498; DU-145; HCT-116; HOP-62; LOX IMVI; MCF7; MDA-N; NCI-H226; NCI-H522; OVCAR-5; PC-3; SN12C; SNB-75; SW-620; T47D; U-251; UACC-62; BT-549; KM12.
Holding throughout (assay): NCI tumour cell line growth inhibition, 48 h

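A five-concentration, 48-hour dose response in 96-well plates underlies each endpoint, interpolated linearly between surrounding concentrations. GI50: concentration for 50% inhibition of growth.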 Calls of active or inactive are those of the source. Cut-off read from the data, not from the text of the source: active = GI50 up to about 1.1 µM and inactive = higher. Where a SMILES comes first, the peptide text is derived from it. The star is where a group is joined. Boc = CC(C)(C)OC(=O)*; OBn = c1ccc(CO*)cc1

Turning to `CC(=O)CN/C(C)=N/Nc1ccc([N+](=O)[O-])cc1[N+](=O)[O-]`, the GI50 in the assay with A498 is 78.3 µM (inactive); in the assay with DU-145 it was > 100 µM (inactive); with HCT-116, > 100 µM (inactive); with HOP-62, > 100 µM (inactive); with LOX IMVI, > 100 µM (inactive); in the assay on MCF7 it was > 100 µM (inactive). The GI50 with MDA-N, in the assay on NCI-H226, in the assay with NCI-H522, with OVCAR-5, in the assay on PC-3 and with SN12C was > 100 µM (inactive) in each case. Moreover, the GI50 in the assay with SNB-75 is > 100 µM (inactive); in the assay with SW-620 it was > 100 µM (inactive); in the assay with T47D, > 100 µM (inactive); in the assay on U-251, > 100 µM (inactive); in the assay with UACC-62, 80.9 µM (inactive).

For `O=Cc1cn(CCCCCCCCCCCCn2cc(C=O)c3ccccc32)c2ccccc12`, the GI50 in the assay on A498 was 61 µM (inactive); in the assay on BT-549 it was > 100 µM (inactive); with DU-145, > 100 µM (inactive); in the assay on HCT-116 it was 2.25 µM (inactive); with HOP-62 it was > 100 µM (inactive); in the assay with LOX IMVI it was > 100 µM (inactive). Moreover, the GI50 with MCF7 was 2.62 µM (inactive); with MDA-N, > 100 µM (inactive); in the assay with NCI-H226, 57.3 µM (inactive); with NCI-H522, 38.3 µM (inactive); in the assay on OVCAR-5, 99.1 µM (inactive); with PC-3, 33.3 µM (inactive). For the same compound, the GI50 in the assay on SN12C, in the assay on SW-620, with U-251 and in the assay on UACC-62 was > 100 µM (inactive) in each case.

For the compound `C=C(C)[C@H]1CC(=O)[C@@]2(C)C[C@H]3O[C@]3(C)CC/C=C(\C)CC[C@H]12`, the GI50 in the assay on A498 was 36.1 µM (inactive); with DU-145, 99.5 µM (inactive); in the assay with HCT-116, 33.9 µM (inactive); in the assay with HOP-62 it was 74.1 µM (inactive); in the assay with KM12 it was 16 µM (inactive); in the assay on LOX IMVI, 57.5 µM (inactive). The GI50 is 24.8 µM (inactive) in the assay on MCF7; 49 µM (inactive) with MDA-N; 31.7 µM (inactive) in the assay on NCI-H226; 37.1 µM (inactive) with NCI-H522; 86.9 µM (inactive) in the assay on OVCAR-5; 34.7 µM (inactive) with PC-3. Further, the GI50 in the assay with SN12C was 23.6 µM (inactive); in the assay with SNB-75, 58.3 µM (inactive); with SW-620 it was 42.3 µM (inactive); in the assay with T47D, 38.4 µM (inactive); in the assay on U-251 it was 51.9 µM (inactive); in the assay on UACC-62, 28.1 µM (inactive).

For the compound `O=c1[nH]nc(NCCc2ccccc2)c2nnn(Cc3ccccc3)c12`, the GI50 with BT-549, with DU-145, in the assay with HCT-116, in the assay with HOP-62, in the assay with KM12 and with LOX IMVI was > 100 µM (inactive) throughout. Besides, the GI50 in the assay on MCF7, with OVCAR-5, in the assay on PC-3, in the assay with SN12C, in the assay on SNB-75 and in the assay on U-251 was > 100 µM (inactive) each time.

Take `COc1cc(CNc2cnc3ccc(N)cc3n2)cc(OC)c1OC`: the GI50 in the assay on A498, in the assay with HCT-116, in the assay with HOP-62, with KM12, with LOX IMVI and in the assay with NCI-H226 was > 100 µM (inactive) each time. Besides, the GI50 in the assay on NCI-H522 is > 100 µM (inactive); in the assay with OVCAR-5 it was > 100 µM (inactive); with SN12C it was > 100 µM (inactive); in the assay on SNB-75, > 100 µM (inactive); in the assay with SW-620, 45.1 µM (inactive); in the assay with U-251, > 100 µM (inactive). In the assay with UACC-62, the GI50 is > 100 µM (inactive).

As for `COc1cccc(C(=O)N2CCc3ccccc32)c1OC`, the GI50 is 56.5 µM (inactive) with HCT-116; > 100 µM (inactive) in the assay on HOP-62; 34.7 µM (inactive) with KM12; 87.7 µM (inactive) in the assay on LOX IMVI; 90.6 µM (inactive) in the assay with NCI-H226; 47.6 µM (inactive) in the assay with NCI-H522. The GI50 in the assay with OVCAR-5 was > 100 µM (inactive); in the assay on SN12C, > 100 µM (inactive); in the assay on SNB-75, 68.4 µM (inactive); in the assay on SW-620, 41.9 µM (inactive); in the assay on U-251 it was 52.7 µM (inactive); with UACC-62, 47 µM (inactive).

Turning to `COc1ccc(Cn2nc(OCc3ccccc3)c3cc([N+](=O)[O-])ccc32)cc1`, the GI50 in the assay on A498, in the assay on DU-145, with HOP-62, in the assay on KM12, in the assay with LOX IMVI and in the assay with MCF7 was > 100 µM (inactive) in each case. Besides, the GI50 in the assay with MDA-N, in the assay with NCI-H226, in the assay on NCI-H522, in the assay with OVCAR-5, with SN12C and in the assay on SNB-75 was > 100 µM (inactive) each time. Besides, the GI50 in the assay on SW-620, in the assay with T47D and with UACC-62 was > 100 µM (inactive) in each case.

`COC(=O)C1(Cc2ccccc2)Cc2ccccc2C1`: the GI50 in the assay with DU-145 was 30.8 µM (inactive); in the assay on HCT-116, 17.3 µM (inactive); in the assay on HOP-62, 32.1 µM (inactive); with KM12, 21.8 µM (inactive); in the assay with LOX IMVI, 20.5 µM (inactive); in the assay on MCF7, 25.1 µM (inactive). The GI50 with MDA-N was 17.3 µM (inactive); in the assay on NCI-H226, 25.6 µM (inactive); with OVCAR-5 it was 31.8 µM (inactive); in the assay on PC-3 it was 29.7 µM (inactive); with SN12C it was 25.4 µM (inactive); with SNB-75, 23.3 µM (inactive). Also, the GI50 in the assay on SW-620 is 35 µM (inactive); with T47D, 21.5 µM (inactive); with U-251, 25.8 µM (inactive); with UACC-62, 21.5 µM (inactive).

Take `CN(C)CC1COC2Cc3ccccc3C1O2` (stereo not given): the GI50 in the assay with A498, in the assay with DU-145, in the assay on HCT-116, in the assay on HOP-62, in the assay on KM12 and in the assay on LOX IMVI was > 100 µM (inactive) throughout. Moreover, the GI50 in the assay on MCF7, in the assay with MDA-N, in the assay with NCI-H226, in the assay with NCI-H522, in the assay on OVCAR-5 and in the assay on PC-3 was > 100 µM (inactive) throughout. Moreover, the GI50 in the assay on SN12C, in the assay on T47D and in the assay with U-251 was > 100 µM (inactive) each time.

With `COc1cc([N+](=O)[O-])c(S(=O)(=O)[O-])cc1-[n+]1nc(C(=O)Nc2ccccc2)nn1-c1ccc([N+](=O)[O-])c(S(=O)(=O)O)c1`, the GI50 in the assay with DU-145, with HCT-116, in the assay with HOP-62, with KM12, in the assay with MCF7 and in the assay on MDA-N was > 100 µM (inactive) each time. Also, the GI50 with NCI-H226, with NCI-H522, in the assay with OVCAR-5, in the assay on PC-3, in the assay with SN12C and in the assay with SNB-75 was > 100 µM (inactive) throughout. The GI50 in the assay with SW-620, in the assay with T47D, with U-251 and in the assay on UACC-62 was > 100 µM (inactive) each time.

In the case of `CN(C)CCCNc1ccc2c(=O)n(CCN(C)C)c(=O)n3c4ccccc4c(=O)c1c23`, the GI50 in the assay with A498 was 0.309 µM (active); with DU-145, 0.124 µM (active); in the assay with HCT-116, 0.0752 µM (active); in the assay on HOP-62 it was 0.351 µM (active); in the assay with KM12 it was 0.159 µM (active); in the assay on LOX IMVI, 0.144 µM (active). Moreover, the GI50 in the assay on MCF7 is 0.0885 µM (active); with MDA-N, 0.133 µM (active); in the assay with NCI-H226, 0.368 µM (active); in the assay with NCI-H522, 0.101 µM (active); with OVCAR-5, 0.356 µM (active); with PC-3 it was 0.258 µM (active). The GI50 is 0.103 µM (active) in the assay on SN12C; 1.1 µM (active) in the assay with SNB-75; 0.0637 µM (active) in the assay with SW-620; 1.03 µM (active) in the assay with T47D; 0.234 µM (active) in the assay with U-251; 0.342 µM (active) in the assay on UACC-62.

Consider `CC(C)(C)OC(=O)NC(Cc1ccccc1)C(=O)NC(Cc1ccccc1)C(=O)NCC(=O)OCc1ccccc1` (stereo not drawn) (Boc-Phe-Phe-Gly-OBn; configuration not given here), for which the GI50 in the assay on A498 is > 100 µM (inactive); in the assay with DU-145 it was 17.9 µM (inactive); in the assay on HCT-116, 18.3 µM (inactive); with HOP-62, 31.1 µM (inactive); in the assay with LOX IMVI it was 7.93 µM (inactive); in the assay on MCF7 it was 51.5 µM (inactive). In addition, the GI50 in the assay on MDA-N was 19.9 µM (inactive); with NCI-H522, 6 µM (inactive); in the assay with OVCAR-5 it was 37.5 µM (inactive); in the assay with PC-3, 16.3 µM (inactive); with SN12C it was 21.7 µM (inactive); in the assay on SNB-75, 37.8 µM (inactive). The GI50 in the assay with SW-620 was 12.8 µM (inactive); in the assay with T47D it was 77.6 µM (inactive); in the assay on U-251, 18.7 µM (inactive); in the assay on UACC-62 it was 16.3 µM (inactive).

Turning to `NS(=O)(=O)c1cc2c(cc1Cl)NCNS2(=O)=O` [HYDROCHLOROTHIAZIDE], the GI50 with DU-145, in the assay with HCT-116, with HOP-62, in the assay with KM12, in the assay on LOX IMVI and in the assay on MCF7 was > 100 µM (inactive) in each case. In addition, the GI50 in the assay on MDA-N, with NCI-H226, in the assay with NCI-H522, with OVCAR-5, in the assay with PC-3 and with SN12C was > 100 µM (inactive) each time. Besides, the GI50 in the assay with SNB-75, in the assay with SW-620, with T47D and in the assay on U-251 was > 100 µM (inactive) each time.
